The values below are quoted from earlier work in patent US4217357A, “Inhibition of thromboxane synthetase with 3-(imidazol-1-ylalkyl)indoles” (Pfizer Inc., priority 1978, dated 1980).

Data set [1] has as its system human blood platelet aggregation. Particulars: variety of aggregating agents; cited from earlier work.
Data set [2] has as its system rabbit. Particulars: intravenous arachidonic acid, rabbits; cited from earlier work.
The subject of data set [3] is aggregation of platelets. Particulars: abdominal aorta of rats in vivo; cited from earlier work.

With `O=C1C(CC[S+]([O-])c2ccccc2)C(=O)N(c2ccccc2)N1c1ccccc1` (stereo not drawn) [sulphinpyrazone], the “inhibitory activity in vitro against aggregating agents” value in data set [1] was “show inhibitory activity in vitro”. For the same molecule, in data set [2], the “protection from the lethal effect of arachidonic acid injection” value was “protect the rabbit from the lethal effect of the injection”. In addition, the “prevention of aggregation of platelets in extra corporeal loop” value in data set [3] was “prevent the aggregation of platelets”.
